15 molecules from patent US9120808B2 (NABRIVA THERAPEUTICS AG, priority 2009, dated 2015) can be followed below.

Where two headings read alike, the source gives them in different places. A value given as a limit tells only on which side of the number the result lay.

The term AUC denotes concentration integrated over time. The low end stands for low exposure, the high end for high exposure. What is called IC50 is the point on the concentration scale where inhibition reaches its midpoint.

The subject of series [1] is K. pneumoniae ATCC 700603. Briefly: In-vitro synergy test, MIC by broth/agar dilution. The format is cell-based. The procedure:
(§1) Stock solutions of the test compounds and control antibiotics are prepared in distilled water according to the NCCLS guidelines (NCCLS (National Commitee for Clinical Laboratory Standards). 12(3). 2000. M7-A4). […] All drug weights are corrected for salt forms and refer to the pure drug substance.
(§2) All tested strains and clinical isolates are either purchased from the American Type Culture Collection (ATCC), kindly supplied by A. Georgopoulos (Vienna General Hospital, Vienna, Austria), and I. Chopra (Leeds, UK), collected from the SENTRY study (F. J. Schmitz, Minden, Germany) or from the Sandoz culture collection.
(§3) All strain identities are confirmed by BBL Crystal™ Identification Systems (Beckton Dickinson, Cockeysville, Md., USA). Stock cultures are prepared from broth cultures grown at 35° C. for 18-22 h without agitation and subsequent addition of 5% DMSO (v/v, final concentration) as cryoprotectant and stored frozen in liquid nitrogen.
(§4) Bacterial susceptibility, expressed as MIC, is determined by microbroth dilution technique and agar dilution technique as recommended by the approved standard reference recommendations of the NCCLS.
(§5) The inoculum is prepared by the direct colony suspension method as described by NCCLS. For this purpose the bacteria are grown on blood agar plates at 35° C. for 24 h. Subsequently 3-5 single colonies are suspended in 5 ml liquid medium. The bacteria are then incubated for 5 h to reach the logarithmic growth phase and subsequently diluted with medium or NaCl (0.86%) to reach a final living cell count equivalent to 10^8 CFU/ml. Then the bacterial suspension is diluted 1:10 and 1 μl (10^4 CFU; final inoculoum 10^5 CFU/ml) is transferred to the test medium containing the antibacterial substances by a multipoint inoculator (Dynatech, Chantilly, Va., USA). The plates are then incubated at 35° C. for 24 h. The MIC is determined optically and defined as the minimum inhibitory concentration [μg/ml] of antibiotic at which no visible bacterial growth occurs.
In general terms: In agar dilution the substance is mixed into plates at graded concentrations.

The test system of a further series is C. freundii 7023771. The series can be described thus: In-vitro synergy test, MIC by broth/agar dilution. The format is cell-based. The procedure: as §1, §2, §3, §4, §5
Another series concerns E. cloacae 83989. Briefly: In-vitro synergy test, MIC by broth/agar dilution. Type of series: cell-based. The procedure:
as §1, §2, §3, §4, §5

A short description of another series: Pharmacokinetics in mice. The format is in vivo. The following applies: for AUC / Cmax: mouse, plasma. The procedure: The values of the PK parameters were calculated by standard noncompartmental analysis, using Kinetica 4.2 (InnaPhase). Plasma concentration values below the limit of quantification were taken as 0. The maximum plasma concentration (Cmax) and the time to reach Cmax were determined from observed data.

Series [2] deals with TEM-1 producing E. coli B269 (clinical isolate). Type of series: in vivo. To be noted: s.c.; 0.5 mg/kg cefepime (0 and 3 h) + 20 mg/kg Example 49 (0, 1.5, 3, 4.5 h after infection). The procedure:
A sepsis model in female NMRI mice was employed using TEM-1 producing E. coli B269 (clinical isolate) as the infecting bacterial strain. In general, the final inoculum given in 0.3 ml per mouse intraperitoneally represented a 100% lethal concentration for systemic infections within 48 hours.
The subcutaneous treatment schedule for the antibiotic at various doses was simultaneous and 3 hours after infection.

The next series has as its target TEM-1 β-lactamase (Escherichia coli, UniProt P62593). The series can be described thus: Cell-free β-lactamase inhibition study (nitrocefin hydrolysis). To be noted: 10 min pre-incubation at 37° C., nitrocefin substrate. Type of series: biochemical. The procedure: (§6) Cell-Free-β-Lactamase Inhibition Study
(§7) Assays are performed with β-lactamases expressed in the pET system (Novagen, San Diego, Calif.) without signal peptides. They contain an N-terminal hexa-Histidine tag that is used for purification on Ni-NTA (Qiagen, Hilden, Germany). The compounds are prepared as 50 mM stocks in DMSO and diluted into buffer P1 (50 mM phosphate, pH 7) to a final concentration of 10% DMSO. All further dilutions are done in P2 (P1 with 10% DMSO). Enzyme and compound dilutions are pre-incubated for 10 min at 37° C. and the reaction is started with the addition of pre-warmed (37° C.) nitrocefin at a final concentration of […]. […] The initial velocity is determined and IC50 values are calculated using non-linear regression and sigmoidal dose response analysis with the PRISM 4.0 software (Graphpad Software Inc., San Diego, Calif.).

The next series addresses SHV-1 β-lactamase (Klebsiella pneumoniae, UniProt P0AD64). The description is as above. Type of series: biochemical. The following applies: SHV-1; 10 min pre-incubation at 37° C., nitrocefin substrate; read-out: IC50. How it is done: as §6, §7
Where [3] appears, read: MIC of cefepime with 17 μM Example 49.
Setting [4] is: MIC of ceftazidime with 68 μM Example 49.

Chain of TEM-1 β-lactamase (P62593 whole entry, looked up): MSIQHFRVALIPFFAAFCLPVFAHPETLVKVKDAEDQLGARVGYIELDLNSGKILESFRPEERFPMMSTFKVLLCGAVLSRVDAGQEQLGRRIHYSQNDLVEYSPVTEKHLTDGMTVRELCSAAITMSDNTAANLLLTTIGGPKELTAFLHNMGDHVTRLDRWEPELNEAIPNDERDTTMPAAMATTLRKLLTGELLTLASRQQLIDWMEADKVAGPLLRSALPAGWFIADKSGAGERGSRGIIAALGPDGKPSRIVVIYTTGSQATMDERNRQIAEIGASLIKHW
Chain of SHV-1 β-lactamase (P0AD64 whole entry, looked up): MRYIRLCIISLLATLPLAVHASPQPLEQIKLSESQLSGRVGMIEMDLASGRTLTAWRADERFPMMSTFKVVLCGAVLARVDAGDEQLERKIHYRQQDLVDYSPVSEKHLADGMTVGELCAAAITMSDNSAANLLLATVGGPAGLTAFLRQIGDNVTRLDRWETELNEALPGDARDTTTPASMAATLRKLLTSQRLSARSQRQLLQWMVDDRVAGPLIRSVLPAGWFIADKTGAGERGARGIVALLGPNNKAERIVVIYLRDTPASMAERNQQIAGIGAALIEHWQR

Take `CC1CC(=C2O[C@@H]3CC(=O)N3C2C(=O)O)C(=O)O1` (single isomer, unassigned) [Example 49]: the “Amoxicillin MIC, +68 μM Example 49” value in series [1] (MIC of amoxicillin with 68 μM Example 49) turned out to be 3.2 µg/mL. The “Cefepime MIC, +17 μM Example 49” value in series [1] (setting [3]) worked out at 0.2 µg/mL; in the series with C. freundii 7023771 (setting [3]), 0.4 µg/mL; with E. cloacae 83989 (setting [3]), 0.8 µg/mL. Further, the “Ceftazidime MIC, +68 μM Example 49” value worked out at 0.2 µg/mL in series [1] (setting [4]), 3.2 µg/mL in the series on C. freundii 7023771 (setting [4]) and 12.8 µg/mL in the series on E. cloacae 83989 (setting [4]). Further, the AUC in “Pharmacokinetics in mice” (oral 25 mg/kg) was 1090 ng·h/mL; in the series “Pharmacokinetics in mice” (sc, subcutaneous 10 mg/kg), 2090 ng·h/mL. Further, the Cmax in “Pharmacokinetics in mice” (oral 25 mg/kg (cremophor EL/ethanol/glucose in saline), read-out: peak plasma concentration (Cmax)) stood at 2220 ng/mL; in the series “Pharmacokinetics in mice” (sc, subcutaneous 10 mg/kg (0.05 M NaPO4 buffer, pH 7.2), read-out: Cmax), 5600 ng/mL. Besides, the Thalf in “Pharmacokinetics in mice” (oral 25 mg/kg) stood at 18.90 min; in “Pharmacokinetics in mice” (subcutaneous 10 mg/kg), 12.27 min. The “time to reach Cmax” value in “Pharmacokinetics in mice” (oral 25 mg/kg) was determined as 15 min; in the series “Pharmacokinetics in mice” (subcutaneous 10 mg/kg), 5 min. Also, the “survival, combination of cefepime and Example 49” value in series [2] is given as “survival of all animals”. At TEM-1 β-lactamase, this molecule yielded an IC50 of 1.8 nM.
Take `CC1(C)S[C@@H]2[C@H](NC(=O)[C@H](N)c3ccc(O)cc3)C(=O)N2[C@H]1C(=O)O` [Amoxicillin, reference compound]: in series [1] (antibiotic alone), the “Amoxicillin MIC, alone” value is greater than 25.6 µg/mL.
Regarding `CO/N=C(\C(=O)N[C@@H]1C(=O)N2C(C(=O)[O-])=C(C[N+]3(C)CCCC3)CS[C@H]12)c1csc(N)n1` [Cefepime, reference compound], the “Cefepime MIC, alone” value (in series [1] (antibiotic alone); in the series with C. freundii 7023771 (antibiotic alone)) was 0.8 µg/mL in each case.
On to `CC(C)(O/N=C(\C(=O)N[C@@H]1C(=O)N2C(C(=O)[O-])=C(C[n+]3ccccc3)CS[C@H]12)c1csc(N)n1)C(=O)O` [Ceftazidime, reference compound], for which the “Ceftazidime MIC, alone” value (in series [1] (antibiotic alone); with C. freundii 7023771 (antibiotic alone); in the series on E. cloacae 83989 (antibiotic alone)) was greater than 25.6 µg/mL throughout.
`CC(C)(C)C(=O)OCOC(=O)C1C(=C(C/C=C/c2ccccc2)C(=O)O)O[C@@H]2CC(=O)N12` (stereo partly drawn) [Example 37, (5R)-3-(1-Carboxy-4-phenyl-but-3-enylidene)-7-oxo-4-oxa-1-aza-bicyclo[3.2.0]heptane-2-carboxylic acid 2,2-dimethyl-propionyloxymethyl ester]: the IC50 on TEM-1 β-lactamase was 44.2 nM; on SHV-1 β-lactamase, 141 nM.
For the molecule `C=CC/C(CO)=C1\O[C@@H]2CC(=O)N2C1C(=O)OCc1ccccc1` (stereo partly drawn) [Example 38, (5R)-3-[1-Hydroxymethyl-but-3-en-(E)-ylidene]-7-oxo-4-oxa-1-aza-bicyclo[3.2.0]heptane-2-carboxylic acid benzyl ester], the IC50 amounted to 8020 nM at TEM-1 β-lactamase and 6810 nM on SHV-1 β-lactamase.
Consider `C=CC/C(CO)=C1/O[C@@H]2CC(=O)N2C1C(=O)OCc1ccccc1` (stereo partly drawn) [Example 38a, (5R)-3-[1-Hydroxymethyl-but-3-en-(Z)-ylidene]-7-oxo-4-oxa-1-aza-bicyclo[3.2.0]heptane-2-carboxylic acid benzyl ester], for which the figures for the IC50 at TEM-1 β-lactamase and on SHV-1 β-lactamase were 1950 nM and 1710 nM, respectively.
The matching figures for `O=C(OCc1ccccc1)C1C(=C(CO)C/C=C/c2ccccc2)O[C@@H]2CC(=O)N12` (stereo partly drawn) [Example 39, (5R)-3-(1-Hydroxymethyl-4-phenyl-but-3-enylidene)-7-oxo-4-oxa-1-aza-bicyclo[3.2.0]heptane-2-carboxylic acid benzyl ester]: 4120 nM and 5610 nM.
On the same counts, the results for `[N-]=[N+]=NCC1C/C(=C2\O[C@@H]3CC(=O)N3C2C(=O)OCc2ccccc2)C(=O)O1` (stereo partly drawn) [Example 48, (5R)-3-(5-Azidomethyl-2-oxo-dihydro-furan-3-ylidene)-7-oxo-4-oxa-1-aza-bicyclo[3.2.0]heptane-2-carboxylic acid benzyl ester] are 2.4 nM and 4.2 nM.
The matching figures for `CCCC(C(=O)O)=C1O[C@@H]2CC(=O)N2C1C(=O)O` (stereo partly drawn) [Example 51, (5R)-3-(1-Carboxy-butylidene)-7-oxo-4-oxa-1-aza-bicyclo[3.2.0]heptane-2-carboxylic acid]: 254 nM and 436 nM.
As for `COC(=O)C1C(=C(CCCc2ccccc2)C(=O)O)O[C@@H]2CC(=O)N12` (stereo partly drawn) [Example 53, (5R)-3-(1-Carboxy-4-phenyl-butylidene)-7-oxo-4-oxa-1-aza-bicyclo[3.2.0]heptane-2-carboxylic acid methyl ester], the IC50 against TEM-1 β-lactamase is 72.8 nM; on SHV-1 β-lactamase it was 219 nM.
In the case of `CCCC(C(=O)O)=C1O[C@@H]2CC(=O)N2C1C(=O)OC` (stereo partly drawn) [Example 54, (5R)-3-(1-Carboxy-butylidene)-7-oxo-4-oxa-1-aza-bicyclo[3.2.0]heptane-2-carboxylic acid methyl ester], the IC50 against TEM-1 β-lactamase was found to be 97 nM; at SHV-1 β-lactamase, 295 nM.
On the same counts, the results for `COC(=O)C(CCCc1ccccc1)=C1O[C@@H]2CC(=O)N2C1C(=O)OC` (stereo partly drawn) [Example 57, (5R)-3-(1-Methoxycarbonyl-4-phenyl-butylidene)-7-oxo-4-oxa-1-aza-bicyclo[3.2.0]heptane-2-carboxylic acid methyl ester] are 10.6 nM and 22.6 nM.
Take `O=C(O)C(CC=CCN(Cc1ccccc1)C(=O)OCc1ccccc1)=C1O[C@@H]2CC(=O)N2C1C(=O)OCc1ccccc1` (stereo partly drawn) [Example 58, (5R)-3-[5-(Benzyl-benzyloxycarbonyl-amino)-1-carboxy-pent-3-enylidene]-7-oxo-4-oxa-1-aza-bicyclo[3.2.0]heptane-2-carboxylic acid benzyl ester]: the IC50 is 1.4 nM against TEM-1 β-lactamase and 0.6 nM at SHV-1 β-lactamase.
For `O=C(OCc1ccccc1)C1C(=C2COC(CI)C2)O[C@@H]2CC(=O)N12` (stereo partly drawn) [Example 59, (5R)-3-[5-Iodomethyl-dihydro-furan-3-ylidene]-7-oxo-4-oxa-1-aza-bicyclo[3.2.0]heptane-2-carboxylic acid benzyl ester], the results for the IC50 against TEM-1 β-lactamase and at SHV-1 β-lactamase were 4390 nM and 3600 nM, respectively.
